Measurements reported in EP4129319A1, “PORE-FORMING ANTIMICROBIAL PEPTIDES” (priority 2021, dated 2023).
Like-named read-outs stand apart in the source and are kept apart here. Ends that are not written are not given here.

Key:
[1] = system: human red blood cells (HRBCs); type: cell-based
Procedure: (§1) Chemicals. […] (Prague, Czech Republic), and Caslo ApS (Kongens Lyngby, Denmark). […] The bacterial stock was stored at -80°C.
Hemolysis assay. Hemolytic toxicity of the peptides was evaluated from their ability to lyse the fresh human red blood cells (HRBCs) collected from the University Hospital (Brno, Czech Republic). To obtain the erythrocyte pellets, the blood samples were centrifuged twice at 700×g and subsequently, once at 1000×g, each for 8 min. at 4 °C, which was followed by thorough washing with PBS. Resuspension of the pellets was done in PBS to obtain 0.5% (vol/vol) RBC suspension. In a well plate with 96 V-shaped bottom wells, the peptides were added in a dilution series from 0.1 to 50 µM concentration. Subsequently, HRBC suspension was added in each well. Negative control wells contained only PBS and HRBC suspension without any peptide (i.e., 0% lysis), and positive control wells included 5 µM melittin in the HRBC suspension. After incubation for 1 h at 37 °C, the well plates were centrifuged at 1000×g for 10 min. at 4 °C. Subsequently, the supernatant was collected in a flat-bottomed well plate and the optical density of the released hemoglobin was measured for each well at 415 nm wavelength. The calculated absorbances from the wells were then normalized against the averaged absorbances of the positive and the negative control wells. EC50 value was calculated from the normalized absorbances indicating 50% hemolysis of HRBCs. Experiments were performed in triplicates with three independent blood samples.

Calcein leakage assay = type: biochemical; conditions: for calcein / vesicle leakage, pore-forming ability (in words): POPC:POPG (1:1) LUVs; for Extent of leakage (in percentage) at increasing peptide-to-lipid ratio (mol/mol) 1:20 / Extent of leakage (in percentage) at increasing peptide-to-lipid ratio (mol/mol) 1:50 / Extent of leakage (in percentage) at increasing peptide-to-lipid ratio (mol/mol) 1:100 / Extent of leakage (in percentage) at increasing peptide-to-lipid ratio (mol/mol) 1:10: calcein leakage, POPC:POPG (1:1 mol/mol) LUVs; for Extent of leakage (in percentage) at increasing peptide-to-lipid ratio (mol/mol) 1:20: peptide-to-lipid ratio 1:20 (mol/mol); for Extent of leakage (in percentage) at increasing peptide-to-lipid ratio (mol/mol) 1:50: peptide-to-lipid ratio 1:50 (mol/mol); for Extent of leakage (in percentage) at increasing peptide-to-lipid ratio (mol/mol) 1:100: peptide-to-lipid ratio 1:100 (mol/mol); for Extent of leakage (in percentage) at increasing peptide-to-lipid ratio (mol/mol) 1:10: peptide-to-lipid ratio 1:10 (mol/mol)
Procedure: as §1
Calcein leakage assay. Pore-forming activity of the peptides was tested by their ability to leak the self-quenching fluorescent dye calcein entrapped within POPC:POPG (1:1 mol/mol) large unilamellar vesicles (LUVs). After mixing DiD to the lipid mixture (in the ratio 1:500 mol/mol), a thin lipid film was created by evaporating of the chloroform, traces of which were removed by desiccating overnight. The lipid film was then dissolved in calcein buffer, followed by vigorous vortexing. The lipid suspension was subsequently subjected to 10 freeze-thaw cycles. To obtain uniform LUVs, the sample was passed 50 times back and forth through an extruder stacked with 100 nm pore size polycarbonate membrane filter. Afterwards, the untrapped calcein was removed on a HiTrap Desalting Column (with Sephadex G-25 Superfine resin) by washing with PBS buffer. The concentration of the lipid suspension was then adjusted to 0.02 mM. The concentration of the peptide solution was 0.1 mM. The inventors monitored the peptide-induced release of calcein from LUVs by the increase in fluorescence intensity after adding increasing amounts of peptides to the LUVs under constant stirring at 25 °C. The investigated range of peptide/lipid molecular ratio was from 1:100 to 1:10. The excitation and emission wavelengths were set to 495 nm and 520 nm, respectively. Maximum fluorescence intensity was obtained by disrupting all the vesicles in the end by adding 10% Triton X-100. Experiments were performed in triplicates with independently prepared lipid vesicles.

[2] = system: Gram-positive Staphylococcus carnosus CCM 4838T; type: cell-based; conditions: for MIC against S. carnosus: 24 h at 37 °C, dilution series 50 to 0.1 µM; for times higher MIC than that of ampicillin, S. carnosus: ratio to ampicillin
Procedure: as §1
(§2) Broth microdilution assay. Antimicrobial activity of the peptides was investigated against Gram-negative Escherichia coli TOP10 strain and Gram-positive Staphylococcus carnosus CCM 4838T using broth microdilution assay, based on which the inventors determined the bacterial minimum inhibition concentration (MIC). After cross streaking with bacteria, the petri dishes (with MHA) were incubated for 24 h at 37 °C. Overnight grown cultures were then sub-cultured for 4-6 h at 37 °C in test tubes containing MHB. The sub-cultured solutions were subsequently diluted to a standard concentration of 10^6 colony forming units (CFU) per mL. Cell counts were determined by measuring the optical density at 600 nm. In a flat-bottomed 96 well plate, the inventors prepared a dilution series for the peptides and for the reference antibiotic ampicillin from 50 to 0.1 µM concentration, which was then inoculated with bacteria and incubated for 24 h at 37 °C. Growth control wells were free from peptides or ampicillin to show the viability of the bacteria, and sterility control wells were free from bacterial inoculation to verify the sterility of the medium. The bacterial growth was visually evaluated based on the turbidity. MIC was determined as the lowest concentrated well where no visible bacterial growth was observed. To test the bacteriostatic or bacteriocidal activity of the peptides, 50 µl solution from the highest concentrated well (i.e., 50 µM) was transferred to a test tube containing 4 mL sterile MHB and incubated for 24 h at 37 °C under constant stirring. Streaking of the same solution was done on MHA containing petri dishes and incubated for 24 h at 37 °C to confirm the morphology of the colonies grown. Experiments were performed in triplicates.

[3] = system: Gram-negative Escherichia coli TOP10 strain; type: cell-based; conditions: for Antibacterial activity (MIC in µM) E. coli TOP10: broth microdilution assay
Procedure: as §1, §2

[4] = system: human dermal fibroblast (HDF) cell lines; assay: Neutral red uptake assay (cytotoxicity); type: cell-based
Procedure: Neutral red uptake assay. To evaluate the cytotoxicity of the peptides against human dermal fibroblast (HDF) cell lines, the inventors purchased the neutral red uptake assay from Essence Line (Praha, Czech Republic). The initial cell culture was sub-cultured in supplemented Dulbecco's Modified Eagle Medium (DMEM) and diluted to a cell density of 1 × 10^5 cells/mL. The diluted culture was then seeded into the wells (1 × 10^4

[5] = hemolysis assay, HRBCs, read-out: Toxicity (EC50 in µM) HRBCs

| Substance | EC50 [1] [µM] | calcein / vesicle leakage, pore-forming ability (in words) (Calcein leakage assay) | Extent of leakage (in percentage) at increasing peptide-to-lipid ratio (mol/mol) 1:20 (Calcein leakage assay) [percentage] | Extent of leakage (in percentage) at increasing peptide-to-lipid ratio (mol/mol) 1:50 (Calcein leakage assay) [percentage] | Extent of leakage (in percentage) at increasing peptide-to-lipid ratio (mol/mol) 1:100 (Calcein leakage assay) [percentage] | antimicrobial activity against S. carnosus (in words) [2] | Antibacterial activity (MIC in µM) S. carnosus ([2]; CCM 4838) [µM] | antimicrobial activity against E. coli (in words) [3] | Antibacterial activity (MIC in µM) E. coli TOP10 [3] [µM] | Extent of leakage (in percentage) at increasing peptide-to-lipid ratio (mol/mol) 1:10 (Calcein leakage assay) [percentage] | Antibacterial activity (MIC in µM) S. carnosus ([2]; broth microdilution assay, S. carnosus) [µM] | EC50 ([4]; HDFs, column stands under the head 'Hemolysis assay', read-out: Toxicity (EC50 in µM) HDFs) [µM] | EC50 [1, 5] [µM] | MIC against S. carnosus [2] [µM] | times higher MIC than that of ampicillin, S. carnosus [2] | MIC against E. coli ([3]; 24 h at 37 °C, dilution series 50 to 0.1 µM) [µM] | times lower MIC than the MIC of ampicillin, E. coli ([3]; ratio to ampicillin) | EC50 [4] [µM] |
| --- | --- | --- | --- | --- | --- | --- | --- | --- | --- | --- | --- | --- | --- | --- | --- | --- | --- | --- |
| KKKKLDDILDDLFQFIKQLKNKLQKIKKKK-NH2 [DKFC16+9-NH2] | > 50 | resulted in vesicle leakage | 103.3 ± 0.9 | 89.5 ± 3.3 | 50.1 ± 4.1 | found active against S. carnosus | 1.6 | did not show activity against E. coli | > 50 |  |  |  |  |  |  |  |  |  |
| KKKKLKKFFKKLIQLINQLFDDLDDFKKKK-NH2 [KDFD24+9-NH2] | > 50 |  | 81.5 ± 6.8 | 42.6 ± 11.5 | 13.0 ± 5.2 |  |  |  | 12.5 | 98.7 ± 3.2 | 12.5 |  |  |  |  |  |  |  |
| KKKKLKKILKKLFQFIDQLDNDLQDIKKKK (not fully specified (C-terminus)) [KDFC16+9-NH2, group C peptide, net charge +9 e; 89] |  |  | 98.3 ± 5.2 | 97.4 ± 9.3 | 78.2 ± 4.5 |  |  |  | 0.8 | 99.28 ± 1.2 |  | 10 | > 50 | 0.4 | 4 | 0.8 | 15 |  |
| KKKKLKKILKKLFQFIDQLINDLQNIKKKK-NH2 [KDFA5+11-NH2] |  |  | 101.6 ± 1.4 | 78.0 ± 4.3 | 38.6 ± 3.5 |  | 1.6 |  | 1.6 |  |  |  | > 50 |  |  |  |  |  |
| KKKKLKKILKKLFQFINQLDNQLQDIKQNK-NH2 [KDFA2i+9-NH2] |  |  |  |  |  |  | 0.8 |  | 0.8 |  |  |  | > 50 |  |  |  |  | 97 |
| KKKKLKKILKKLFQFINQLIDDLDDIKKKK-NH2 [KDFC21+9-NH2] | > 50 |  | 99.4 ± 1.6 | 78.2 ± 1.2 |  |  | 3.1 |  | 3.1 | 102.2 ± 1.1 |  |  |  |  |  |  |  |  |
| KKKKLRRILRRLFQFINQLDNQLQDIKQNK-NH2 [RDFA2i+9-NH2-Kter] |  |  |  | 100.7 ± 1.0 | 76.0 ± 3.3 | more effective against S. carnosus | 0.4 |  | 0.2 |  |  |  | 49 |  |  |  |  |  |
| KKKKVKKVVKKVFSFVDSVDSDVSDVKKKK-NH2 [KDFC16+9SV-NH2] | > 50 | did not cause calcein leakage |  |  |  |  |  |  | 25 |  |  |  |  | 0.4 | 4 |  |  | > 150 |
| KQKKLKKFFNQLIQLINQLFNQLDDFNQNK [KDFB12] | > 50 |  | 101.5 ± 0.6 | 98.2 ± 0.7 | 79.4 ± 3.7 |  | 6.3 |  | 6.3 |  |  |  |  |  |  |  |  | 20 |
| NQKKLQNILNKLFKFIDDLINQLQNIKKQN [KDFA9] | > 50 | retained | 102.0 ± 1.4 | 92.0 ± 0.3 | 62.6 ± 5.2 |  | > 50 |  | > 50 |  |  |  |  |  |  |  |  |  |
| RRRRLKKILKKLFQFINQLDNQLQDIRQNR-NH2 [KDFA2i+9-NH2-Rter] |  |  | 103.3 ± 1.2 | 98.8 ± 1.2 | 65.5 ± 4.2 |  | 0.8 |  | 0.4 |  |  |  | 6.9 |  |  |  |  |  |
